# Experimental data: patent publication US7514448B2, “Azaindoles useful as inhibitors of rock and other protein kinases” (Vertex Pharmaceuticals Incorporated, priority 2004, dated 2009)
# Experiments:
# Type in all cases: biochemical
# [1] = target: PKA (Homo sapiens, UniProt P17612); experiment: PKA inhibition assay, coupled enzyme; details: average Ki if more than one determined
# Method: Compounds were screened for their ability to inhibit PKA using a standard coupled enzyme assay (Fox et al., Protein Sci, 1998, 7, 2249). Assays were carried out in a mixture of 100 mM HEPES (pH 7.5), 10 mM MgCl2, 25 mM NaCl, 1 mM DTT and 3% DMSO. Final substrate concentrations in the assay were 50 μM ATP (Sigma Chemicals) and 80 μM peptide (Kemptide, American Peptide, Sunnyvale, Calif.). Assays were carried out at 30° C. and 18 nM PKA. Final concentrations of the components of the coupled enzyme system were 2.5 mM phosphoenolpyruvate, 300 μM NADH, 30 μg/ml pyruvate kinase and 10 μg/ml lactate dehydrogenase.
# An assay stock buffer solution was prepared containing all of the reagents listed above, with the exception of ATP, and the test compound of the present invention. […] The plate was preincubated for 10 minutes at 30° C. and the reaction initiated by addition of 5 μl of ATP (final concentration 50 μM). Initial reaction rates were determined with a Molecular Devices SpectraMax Plus plate reader over a 15 minute time course. IC50 and Ki data were calculated from non-linear regression analysis using the Prism software package (GraphPad Prism version 3.0a for Macintosh, GraphPad Software, San Diego Calif., USA).
# [2] = target: ROCK I (AA 6-553) (Homo sapiens, UniProt Q13464); experiment: ROCK inhibition assay, coupled enzyme system ("Enzyme"); details: enzyme-linked assay; average Ki if more than one determined
# ROCK I (AA 6-553), sequence (Q13464 6-553, species assumed): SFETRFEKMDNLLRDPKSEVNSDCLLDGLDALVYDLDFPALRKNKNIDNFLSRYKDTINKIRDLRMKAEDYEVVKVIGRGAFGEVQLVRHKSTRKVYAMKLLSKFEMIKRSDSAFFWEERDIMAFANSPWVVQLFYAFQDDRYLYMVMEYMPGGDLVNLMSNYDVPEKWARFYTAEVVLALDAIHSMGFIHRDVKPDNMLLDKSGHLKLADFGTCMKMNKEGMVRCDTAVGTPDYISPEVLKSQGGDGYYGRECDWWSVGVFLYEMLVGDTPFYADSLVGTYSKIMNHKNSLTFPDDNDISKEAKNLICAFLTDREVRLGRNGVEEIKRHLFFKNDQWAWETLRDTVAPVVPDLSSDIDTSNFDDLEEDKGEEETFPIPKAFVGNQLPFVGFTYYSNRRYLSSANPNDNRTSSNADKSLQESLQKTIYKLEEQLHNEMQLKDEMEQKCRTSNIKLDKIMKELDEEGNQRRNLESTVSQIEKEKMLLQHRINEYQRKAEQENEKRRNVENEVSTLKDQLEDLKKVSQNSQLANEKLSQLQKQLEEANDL
# Method: Reactions were carried out in a solution containing 100 mM HEPES (pH 7.5), 10 mM MgCl2, 25 mM NaCl, 2 mM DTT and 1.5% DMSO.
# (§1) If more than one value of Ki has been determined, the average Ki is indicated. If no value is indicated, then the Ki was not determined.
# [3] = target: ROCK (Homo sapiens, UniProt Q13464); experiment: ROCK radioactive assay ("33P"); details: radioactive assay; average Ki if more than one determined; read-out: ROCK 33P Ki
# ROCK, sequence (Q13464 whole entry): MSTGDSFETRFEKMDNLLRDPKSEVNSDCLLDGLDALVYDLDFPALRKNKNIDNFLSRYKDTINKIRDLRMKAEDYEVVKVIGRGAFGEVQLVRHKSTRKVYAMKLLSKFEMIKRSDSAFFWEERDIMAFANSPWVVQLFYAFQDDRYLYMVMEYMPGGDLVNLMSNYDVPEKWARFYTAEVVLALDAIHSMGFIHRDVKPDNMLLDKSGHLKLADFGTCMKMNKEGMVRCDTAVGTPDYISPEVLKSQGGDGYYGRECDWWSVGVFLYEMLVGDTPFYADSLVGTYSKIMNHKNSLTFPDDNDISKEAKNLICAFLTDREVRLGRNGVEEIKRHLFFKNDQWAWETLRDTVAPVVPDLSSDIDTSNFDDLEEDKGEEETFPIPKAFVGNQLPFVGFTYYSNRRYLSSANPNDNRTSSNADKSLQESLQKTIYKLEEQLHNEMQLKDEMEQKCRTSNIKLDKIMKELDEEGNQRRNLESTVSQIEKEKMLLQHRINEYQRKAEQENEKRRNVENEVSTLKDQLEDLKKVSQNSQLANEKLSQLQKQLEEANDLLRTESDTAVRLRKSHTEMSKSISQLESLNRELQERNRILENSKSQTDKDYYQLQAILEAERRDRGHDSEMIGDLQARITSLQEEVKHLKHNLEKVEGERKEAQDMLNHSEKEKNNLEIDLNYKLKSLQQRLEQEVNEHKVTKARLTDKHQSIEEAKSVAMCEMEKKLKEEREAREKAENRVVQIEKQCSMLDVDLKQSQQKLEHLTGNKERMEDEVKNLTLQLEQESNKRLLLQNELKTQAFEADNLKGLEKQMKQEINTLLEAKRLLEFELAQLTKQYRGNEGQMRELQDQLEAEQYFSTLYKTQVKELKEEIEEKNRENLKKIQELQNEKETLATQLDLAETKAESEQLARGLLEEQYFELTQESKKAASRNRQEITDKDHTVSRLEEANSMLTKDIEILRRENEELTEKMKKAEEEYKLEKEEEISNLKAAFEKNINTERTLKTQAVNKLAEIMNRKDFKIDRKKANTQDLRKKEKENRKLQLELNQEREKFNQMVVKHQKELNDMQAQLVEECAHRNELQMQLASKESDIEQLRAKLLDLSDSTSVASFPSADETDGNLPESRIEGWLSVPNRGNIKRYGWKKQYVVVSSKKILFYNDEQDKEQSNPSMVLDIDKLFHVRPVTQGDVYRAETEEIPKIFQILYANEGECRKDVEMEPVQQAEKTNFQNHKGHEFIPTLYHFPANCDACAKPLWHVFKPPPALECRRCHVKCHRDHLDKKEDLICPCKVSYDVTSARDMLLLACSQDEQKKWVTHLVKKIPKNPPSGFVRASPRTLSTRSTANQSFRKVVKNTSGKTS
# From the text: as §1
Structure (SMILES),Ki [1] [nM],Ki [2] [nM],Ki [3] [nM]
CS(=O)(=O)Nc1cccc(CC(=O)Nc2nc(-c3c[nH]c4ncc(Br)cc34)cs2)c1 [II-78],500 to 5000,< 500,
O=C(NCCc1ccccc1)c1ccc(-c2c[nH]c3ncccc23)s1 [II-31],< 500,< 500,
O=C(Cc1cccc(OCCCC2CCNCC2)c1)Nc1nc(-c2c[nH]c3nccc(Cl)c23)cs1 [II-95],< 500,< 500,
O=C(Cc1ccc(F)cc1)Nc1csc(-c2c[nH]c3ncccc23)n1 [II-61],< 500,< 500,
Cc1sc(NC(=O)Cc2cccc(S(=O)(=O)N3CCOCC3)c2)nc1-c1c[nH]c2ncccc12 [II-101],500 to 5000,500 to 5000,
O=C(Cc1cccc(OCCN2CCNCC2)c1)N(c1nc(-c2c[nH]c3ncccc23)cs1)C1CC1 [II-85],< 500,< 500,
O=C(Cc1ccccc1F)Nc1nnc(-c2c[nH]c3ncccc23)s1 [I-23],< 500,< 500,
CS(=O)(=O)Oc1cccc(CC(=O)Nc2nc(-c3c[nH]c4ncccc34)cs2)c1 [I-10],< 500,< 500,
CS(=O)(=O)Nc1cccc(CC(=O)N(c2nc(-c3c[nH]c4ncccc34)cs2)C2CC2)c1 [II-27],< 500,< 500,
CN(C)CCN(C)S(=O)(=O)c1cccc(CC(=O)Nc2nc(-c3c[nH]c4ncccc34)cs2)c1 [II-90],< 500,< 500,
Nc1ccc(CC(=O)Nc2nc(-c3c[nH]c4ncccc34)cs2)c(Cl)c1 [II-34],< 500,< 500,
O=C(Cc1cccc(S(=O)(=O)N2CCOCC2)c1)Nc1nc(-c2c[nH]c3ncc(Br)cc23)cs1 [II-107],500 to 5000,< 500,
O=C(Cc1ccc2c(c1)OCO2)N(c1nc(-c2c[nH]c3ncccc23)cs1)C1CC1 [II-69],< 500,< 500,
COc1cccc(CC(=O)Nc2cc(-c3c[nH]c4ncccc34)cs2)c1 [II-23],< 500,< 500,
O=C(Cc1cccc(S(=O)(=O)NC2CC2)c1)Nc1nc(-c2c[nH]c3ncccc23)cs1 [II-6],< 500,< 500,
O=C(Cc1cccc(O)c1)N(c1nc(-c2c[nH]c3ncccc23)cs1)C1CC1 [II-68],< 500,< 500,
O=C(Cc1cccc(OCCCC2CCNCC2)c1)Nc1nnc(-c2c[nH]c3ncccc23)s1 [II-22],,< 500,
O=C(Cc1ccccc1)Nc1nc(-c2c[nH]c3ncc(O)cc23)cs1 [II-131],< 500,,< 500
CC(C)C(CO)NC(=O)c1nc(-c2c[nH]c3ncccc23)cs1 (stereo not shown) [II-183],500 to 5000,,< 500
NCCC(=O)Nc1nc(-c2c[nH]c3ncccc23)cs1 [II-180],< 500,,< 500

Structure (SMILES),Ki [1] [nM],Ki [2] [nM],Ki [3] [nM]
O=C1C[C@H](C(=O)Nc2nc(-c3c[nH]c4ncccc34)cs2)N1 [II-152],< 500,,< 500
O=C(N[C@H](CO)c1ccccc1)c1nc(-c2c[nH]c3ncccc23)cs1 [II-184],< 500,,< 500
O=C(Nc1nc(-c2c[nH]c3ncccc23)cs1)[C@H](O)c1ccccc1 [II-210],< 500,,< 500
NCCC(C(=O)Nc1nc(-c2c[nH]c3ncccc23)cs1)c1ccccc1Cl (stereo not shown) [II-192],< 500,,< 500
CN(C)S(=O)(=O)Nc1cccc(CC(=O)Nc2nc(-c3c[nH]c4ncccc34)cs2)c1 [II-193],< 500,,< 500
O=C1CC[C@@H](C(=O)Nc2nc(-c3c[nH]c4ncccc34)cs2)N1 [II-148],< 500,,< 500
CCCC(C(=O)Nc1nc(-c2c[nH]c3ncccc23)cs1)S(=O)(=O)CC (stereo not shown) [II-225],500 to 5000,,< 500
O=C1CC[C@@H](C(=O)Nc2nc(-c3c[nH]c4ncccc34)cs2)O1 [II-146],500 to 5000,,< 500
COc1cccc(C(O)C(=O)Nc2nc(-c3c[nH]c4ncccc34)cs2)c1 (stereo not shown) [II-208],< 500,,< 500
CN(CC(=O)Nc1nc(-c2c[nH]c3ncccc23)cs1)S(C)(=O)=O [II-231],< 500,,< 500
N[C@@H](C(=O)Nc1nc(-c2c[nH]c3ncccc23)cs1)c1ccccc1 [II-214],< 500,,< 500
O=C(Nc1nc(-c2c[nH]c3ncccc23)cs1)N1CCNCC1 [II-243],500 to 5000,,500 to 5000
O=C(Nc1nc(-c2c[nH]c3ncccc23)cs1)NC1CCC(C(=O)O)CC1 (stereo not shown) [II-239],500 to 5000,,< 500
O=C(Cc1cccc(NS(=O)(=O)CCCN2CCCCC2)c1)Nc1nc(-c2c[nH]c3ncccc23)cs1 [II-168],< 500,,< 500
O=C(Nc1nc(-c2c[nH]c3ncccc23)cs1)C1CCNCC1 [II-174],500 to 5000,,< 500
CC(C)C(O)C(=O)Nc1nc(-c2c[nH]c3ncccc23)cs1 (stereo not shown) [II-159],< 500,,< 500
O=C(Nc1nc(-c2c[nH]c3ncccc23)cs1)N1CCCCC1 [II-238],500 to 5000,,500 to 5000
O=C(Nc1nc(-c2c[nH]c3ncccc23)cs1)C1CCOCC1 [II-175],< 500,,< 500
CCNC(=O)Nc1nc(-c2c[nH]c3ncccc23)cs1 [II-234],500 to 5000,,500 to 5000

# Continued, values first:
Ki [1] [nM],Ki [2] [nM],Ki [3] [nM],Structure (SMILES)
< 500,< 500,,O=C(Cc1ccccc1F)Nc1csc(-c2c[nH]c3ncccc23)n1 [II-60]
< 500,< 500,,COc1cccc(CC(=O)Nc2nc(-c3c[nH]c4ncc(Cl)cc34)cs2)c1 [II-103]
< 500,< 500,,O=C(Cc1cc2c(cc1Cl)OCO2)Nc1nc(-c2c[nH]c3nccc(F)c23)cs1 [II-20]
< 500,< 500,,CN1CCCN(S(=O)(=O)c2cccc(CC(=O)Nc3nc(-c4c[nH]c5ncccc45)cs3)c2)CC1 [II-52]
< 500,< 500,,CS(=O)(=O)Nc1ccc(F)c(CC(=O)Nc2nc(-c3c[nH]c4ncccc34)cs2)c1 [II-82]
500 to 5000,< 500,,O=C(NCc1cccc(S(=O)(=O)N2CCOCC2)c1)c1cc(-c2c[nH]c3ncccc23)cs1 [II-80]
500 to 5000,< 500,,O=C(Cc1cccc(OCCCn2ccnc2)c1)Nc1nc(-c2c[nH]c3nccc(F)c23)cs1 [II-38]
< 500,,< 500,NCC(C(=O)Nc1nc(-c2c[nH]c3ncccc23)cs1)c1cccc(Cl)c1Cl (stereo not shown) [II-195]
500 to 5000,,500 to 5000,CN(C)C(=O)Nc1nc(-c2c[nH]c3ncccc23)cs1 [II-240]
500 to 5000,,< 500,CS(=O)(=O)Nc1cccc(CC(=O)Nc2nc(-c3c[nH]c4ncc(O)cc34)cs2)c1 [II-132]
< 500,,< 500,O=C(Cc1ccccn1)Nc1nc(-c2c[nH]c3ncccc23)cs1 [II-215]
< 500,,< 500,CCS(=O)(=O)NCC(=O)Nc1nc(-c2c[nH]c3ncccc23)cs1 [II-218]
500 to 5000,,< 500,c1coc(CNc2nc(-c3c[nH]c4ncccc34)cs2)c1 [II-199]
< 500,,< 500,CNCC(=O)Nc1nc(-c2c[nH]c3ncccc23)cs1 [II-179]
< 500,,< 500,CS(=O)(=O)CC(=O)Nc1nc(-c2c[nH]c3ncccc23)cs1 [II-161]
500 to 5000,,500 to 5000,O=C(Nc1nc(-c2c[nH]c3ncccc23)cs1)N1CCCC1 [II-241]
< 500,,< 500,CC(C)C[C@H](N)C(=O)Nc1nc(-c2c[nH]c3ncccc23)cs1 [II-166]
< 500,,< 500,CC(C)[C@@H](NS(C)(=O)=O)C(=O)Nc1nc(-c2c[nH]c3ncccc23)cs1 [II-227]
,< 500,,COc1cccc(CNC(=O)c2csc(-c3c[nH]c4ncccc34)n2)c1 [II-21]
< 500,,< 500,O=C(Cc1cccnc1)Nc1nc(-c2c[nH]c3ncccc23)cs1 [II-205]
< 500,,< 500,O=C(Nc1nc(-c2c[nH]c3ncccc23)cs1)C1CCOC1 (stereo not shown) [II-172]
< 500,,< 500,N[C@H](Cc1ccccc1)C(=O)Nc1nc(-c2c[nH]c3ncccc23)cs1 [II-177]
500 to 5000,,500 to 5000,CN1CCN(C(=O)Nc2nc(-c3c[nH]c4ncccc34)cs2)CC1 [II-237]
< 500,,< 500,NCCC(C(=O)Nc1nc(-c2c[nH]c3ncccc23)cs1)c1ccc(F)cc1 (stereo not shown) [II-190]
< 500,,< 500,CN1CCN(CCCN(C(=O)Cc2cccc(NS(C)(=O)=O)c2)c2nc(-c3c[nH]c4ncccc34)cs2)CC1 [II-203]
< 500,,< 500,O=C(Nc1nc(-c2c[nH]c3ncccc23)cs1)[C@@H](O)c1ccccc1 [II-207]
500 to 5000,,< 500,CC(=O)N(CCCN1CCN(C)CC1)c1nc(-c2c[nH]c3ncccc23)cs1 [II-204]
